Experimental data published in US11058756B2, “Compositions and methods of treating autoimmune disease by reducing enterococcus” (YALE UNIVERSITY, priority 2017, dated 2021).

Tests used:
[1] = tested on: (NZWxBXSB)F1 mice; assay: Oral antibiotics in drinking water: mortality, clinical outcome, proteinuria and organ histology in the autoimmune hybrid model; assay type: in vivo, mouse
Source text: 6-week-old male (NZWxBXSB)F1 mice and C57BL/6J mice were used in this study except if noted otherwise. (NZWxBXSB)F1 were bred by mating NZW/LaJ females with BXSB/MpJ males obtained from Jackson Laboratory (Bar Harbor, Me., USA). Parental littermates of (NZWxBXSB)F1 were randomly mixed with littermates from other parental cages 21 days after birth to equilibrate the microbiomes from different cages and parental origin. All mice were maintained in a specific-pathogen-free environment. (NZWxBXSB)F1 mice were provided with water and a standard laboratory diet ad libitum (2018 Harlan Teklad, South Easton, Mass., USA). They were supplied with hardwood chips as bedding and were housed in a temperature-controlled, air-conditioned room on a 12-hr light-dark cycle. Germ-free (GF) C57BL/6 mice were kept under sterile conditions in CBC's (Class Biologically Clean, Madison, Wis., USA) Quad flexible film isolators (Softwall), exposed to a 12-hr light/dark cycle and provided standard, autoclaved tap water and mouse chow (2018S Harlan Teklad, South Easton, Mass., USA) ad libitum. To exclude a Th17 bias, a PCR for segmented filamentous bacteria (SFB) was performed on fecal DNA from all mice involving Th17 studies. Fecal SFB detection at 6-8 weeks of age that correlates with ileal SFB colonization was performed as described (Barman et al., 2008, Infect Immun, 76, 907-915; Kriegel et al., 2011, Proc Natl Acad Sci USA, 108, 11548-11553). All Th17 data was derived from SFB-negative animals.
Mice were cohoused for 3 to 4 weeks before antibiotic treatment to allow for equilibration of the microbiota. Single antibiotic or broad-spectrum antibiotic administration consisted of metronidazole (1 g/liter; Fisher Scientific), neomycin (1 g/liter; Fisher Scientific), ampicillin (1 g/liter; Sigma) and vancomycin (0.5 g/liter; Acros Organics) in the drinking water for up to 22 weeks or a targeted regiment for 2 weeks and then replaced with regular water for the duration of the experiment. For broad-spectrum antibiotic experiments (vancomycin, ampicillin, metronidazole, and neomycin combined), sweetener (Equal, 4 g/L) was added to both the antibiotics and control water due to the metallic taste of metronidazole. Twenty-four hours after cessation of antibiotic water, mice were administered 1×10^6 CFUs of vancomycin-resistant E. gallinarum via oral gavage, isolated from liver tissue of a vancomycin-treated mouse that continued to show signs of autoimmune disease (high-level resistance was confirmed by vanC gene PCR). E. gallinarum was grown at 37° C. in Gifu Anaerobic Broth (HIMEDIA Laboratories) to early stationary phase under anaerobic conditions (82% N2, 15% CO2, 3% H2 by volume) in an anaerobic chamber and diluted in PBS to 10^7 CFUs.
Samples were obtained at autopsy and fixed in 10% neutral formalin, and histological sections were stained with hematoxylin and eosin (H&E) and scored in a blinded fashion. Glomerulonephritis was scored on a scale of 0-4 based on the intensity and extent of histopathological changes (Klopfleisch, 2013, BMC Vet Res, 9, 123). A grade of 0 was given to kidneys without glomerular lesions; grade 1 consisted of minimal thickening of the mesangium; grade 2 contained noticeable increases in both mesangial and glomerular cellularity; grade 3 was characterized by the preceding conditions with superimposed inflammatory exudates and capsular adhesions; and grade 4 consisted of obliterated glomerular architecture in greater than 70% of glomeruli. […]

[2] = tested on: MLN Th17 cells; assay: Vancomycin in vitro assay on MLN cell cultures (Th17 frequency by FACS); assay type: cell-based, mouse; conditions: vancomycin 16 μg/mL, anti-CD3/anti-CD28, 3 days (FIG. 19D legend)
Description: […] In vitro samples were stained as described above. All samples were collected using an LSR II flow cytometer (Becton Dickinson). All flow cytometry data were analyzed by FlowJo version 9.7 (Tree Star).

SMILES: CN[C@H](CC(C)C)C(=O)N[C@H]1C(=O)N[C@@H](CC(N)=O)C(=O)N[C@H]2C(=O)N[C@H]3C(=O)N[C@H](C(=O)N[C@H](C(=O)O)c4cc(O)cc(O)c4-c4cc3ccc4O)[C@H](O)c3ccc(c(Cl)c3)Oc3cc2cc(c3O[C@@H]2O[C@H](CO)[C@@H](O)[C@H](O)[C@H]2O[C@H]2C[C@](C)(N)[C@H](O)[C@H](C)O2)Oc2ccc(cc2Cl)[C@H]1O [vancomycin]
- Mortality ([1]; single antibiotic in drinking water from 6 weeks of age, followed for 30 weeks or until death, FIG. 1A): prevented
- autoimmune manifestations (proteinuria, organ histology scores) ([1]; single antibiotic in drinking water, FIG. 1D-1I): prevented
- direct influence on immune cells in vitro (MLN Th17 cell frequency) [2]: no direct influence
